How the values were obtained:
[1] = system: Human lens epithelial cells (HLEpiC); assay: Inhibitory action on actin stress fiber formation (phalloidin staining, confocal microscopy); type: cell-based; details: treated about an hour
Experimental: Human lens epithelial cells (HLEpiC (ScienCell Research Laboratories)) were diluted with a medium (Epithelial Cell Medium (ScienCell Research Laboratories)), dispensed to each well of Poly-L-lysine (ScienCell Research Laboratories) coated Imaging Chamber CG at 100 μL/well (about 5000 cells/cm^2), and cultured in a carbon dioxide incubator (37° C., 5% CO2) until about 50% confluent. The medium was removed with vacuum suction and a test substance, a positive control, a comparative control, or the medium (control) at each concentration given below was added to each well at 300 μL/well:
Test substance: Ripasudil with a concentration of 10 μM, 100 μM or 1 mM,
Positive control: Cytochalasin D with a concentration of 2 μM,
These were treated in a carbon dioxide incubator (37° C., 5% CO2) for about an hour, and then washed once with the medium. 4% Paraformaldehyde Phosphate Buffer Solution (Wako Pure Chemical Industries, Ltd.) (hereinafter, referred to as a fixative solution) was added at 300 μL/well, and fixation was carried out at room temperature for 2 minutes. After washing with the medium, 0.5% Triton X-100 (Roche Diagnostics K.K.) was added at 300 μL/well, and penetrated at room temperature for 2 minutes. After washing with the medium, the fixative solution was added at 300 μL/well, and fixation was carried out at room temperature for 20 minutes.
Separately, 25 μL of 14 μM Actin-Stain™ 555 phalloidin (Cytoskeleton, Inc.) (hereinafter, referred to as Phalloidin) was added to 3475 μL of 10 mM phosphate buffered saline (Wako Pure Chemical Industries, Ltd.) to produce 100 nM Phalloidin.
This 100 nM Phalloidin was added to each well washed with the medium at 200 μL/well, and staining was carried out at room temperature in a dark place for about 60 minutes.
After washing with the medium, the chamber was removed, and […] Mounting Medium with DAPI (Vector Laboratories, Inc.) was dropped onto a cover glass with a few drops. A slide glass was placed thereon and this was left to stand at room temperature in a dark place for 30 minutes or more, and adhesion and nuclear staining were carried out and then observed by a confocal laser scanning microscope.

[2] = system: Human lens epithelial cells (HLEpiC); assay: Reversibility of inhibition of actin stress fiber formation after removal; type: cell-based; details: recultured about 24 hours after removal
Experimental: After removal of the test substance, positive control or comparative control in Example 1, the cells were recultured for about another 24 hours, treated in accordance with the operation in Example 1, and then observed by a confocal laser scanning microscope in the same manner as in Example 1 to observe the reversibility of actin stress fibers.

HLEpiC [3] = assay: Reversibility of inhibition of cell migration after removal; type: cell-based, human; details: for time after removal at which Detection Zone was filled with HLEpiC: then removal
Experimental: After the operation in Example 4, the test substance, the positive control, or the comparative control was removed, and after brief washing with the medium, the medium was added at 100 μL/well, and the cells were cultured in a carbon dioxide incubator (37° C., 5% CO2).

HLEpiC [4] = assay: Determination of G-actin/F-actin ratio using G-Actin/F-Actin In Vivo Assay Kit; type: cell-based, human; details: 2 μM, about an hour; control 1.16
Experimental: HLEpiC was diluted with a medium (Epithelial Cell Medium), and dispensed to a Poly-L-lysine coated T-75 flask at about 5000 cells/cm^2, and cultured in a carbon dioxide incubator (37° C., 5% CO2) until about 50% confluent. A test substance, a positive control or the medium (control) at each concentration given below was added to each flask at 20 mL.
(§1) Test substance: Ripasudil with a concentration of […], 100 μM or 1 mM,
Positive control: CD with a concentration of 2 μM, and
These were treated in a carbon dioxide incubator (37° C., 5% CO2) for about an hour.
To 20 mL of Lysis and F-actin stabilization buffer was added 200 μL of 100 mM ATP stock solution and 200 μL of 100× Protease inhibitor cocktail stock to produce LAS2 buffer, and this was incubated in a carbon dioxide incubator (37° C.) for about 30 minutes. Warmed LAS2 buffer was added at 2.5 mL to each flask in which the medium was removed with vacuum suction.
Next, adherent HLEpiC was completely scraped with a cell scraper and transferred with the LAS2 buffer to a conical tube, and HLEpiC was crushed with a micropipette (hereinafter, referred to as cell solution). This cell solution was incubated in a carbon dioxide incubator (37° C.) for about 10 minutes and then centrifuged for 10 minutes (2000 rpm, room temperature). The supernatant was dispensed into an ultracentrifugal tube at 1.8 mL and centrifuged for an hour with an ultracentrifuge (100,000× g, 37° C.). At this time, F-actin is precipitated and G-actin remains in the supernatant.
The supernatant was transferred to a conical tube while being careful not to suck F-actin precipitates.
To precipitates of each sample was added 1.8 mL of F-actin depolymerizing buffer, and this was incubated under ice-cold conditions for an hour to depolymerize actin.
From each supernatant sample and precipitate sample, 100 μL each was put in a 1.5 mL Eppendorf tube, and 25 μL of 5×SDS sample buffer was added and stirred.
Each sample was boiled in a boiling water bath for 5 minutes.
Each sample was subjected to SDS-polyacrylamide gel electrophoresis, followed by Western blotting.
Next, after treatment using a Western blotting detection reagent (ECL Select Western Blotting Detection Reagent, GE Healthcare Japan), proteins were detected using a Lumino image analyzer. The quantities of G-actin and F-actin were determined using an analysis software (ImageQuant TL, GE Healthcare Japan) and the G-actin/F-actin ratio was calculated.
The variation in the quantity of F-actin required to form actin stress fibers was evaluated by comparison with the G-actin/F-actin ratio of untreated (Control) cells.

HLEpiC [5] = assay: Inhibitory action on cell migration (Oris Cell Migration plate); type: cell-based, human; details: about 24 and 48 hours after treatment
Experimental: HLEpiC was diluted with a medium (Epithelial Cell Medium) and dispensed to Poly-L-lysine coated Oris™ Cell Migration 96 well plate, to which a stopper was firmly attached, at 50 μL/well (25000 cells/well) and cultured in a carbon dioxide incubator (37° C., 5% CO2) for 24 hours. The stopper was removed, and after brief washing with the medium, a solution obtained by adding 5 μL of 10 mM Cell Tracker Green Fluorescent Probe (Lonza Walkersville, Inc.) to 4995 μL of the medium was added at 100 μL/well, and the cells were stained in a carbon dioxide incubator (37° C., 5% CO2) for about 30 minutes. After brief washing with the medium, the medium was further added and the cells were cultured in a carbon dioxide incubator (37° C., 5% CO2) for about 30 minutes.
After brief washing with the medium, a test substance, a positive control, a comparative control or the medium (control) at each concentration given below was added at 100 μL/well.
as §1
Positive control: CD with a concentration of 2 μM,
These were cultured in a carbon dioxide incubator (37° C., 5% CO2). The state of HLEpiC in the Detection Zone in each sample was observed by a confocal laser scanning microscope about 24 hours after the treatment and 48 hours after the treatment.

[6] = system: Soemmerring's ring, posterior capsule opacification (PCO); details: cited from earlier work
myofibroblasts = details: cited from earlier work
bovine lens cells = details: cited from earlier work
[7] = system: hyalocyte-containing collagen gel; details: cited from earlier work

SMILES: C=C1[C@@H](C)[C@H]2[C@H](Cc3ccccc3)NC(=O)[C@]23[C@H](OC(C)=O)/C=C/[C@@](C)(O)C(=O)[C@@H](C)C/C=C/[C@H]3[C@@H]1O [Cytochalasin D, reference compound]
- actin stress fibers (observation) ([1]; 2 μM): significantly disappear
- reversibility of actin stress fibers ([2]; 2 μM): recovered
- time after removal at which Detection Zone was filled with HLEpiC (HLEpiC [3]; 2 μM treatment): about 48 hours
- G-actin/F-actin ratio (HLEpiC [4]): 25.03
- cell migration into Detection Zone (observation) (HLEpiC [5]; 2 μM): inhibitory action on cell migration was further recognized

SMILES: CC1CNCCN1S(=O)(=O)c1cccc2cnccc12 (stereo not shown) [H-7]
- effect on posterior capsule opacification (PCO) [6]: ineffective
- resolving Soemmerring's ring [6]: effective

SMILES: Cc1cncc2cccc(S(=O)(=O)N3CCCNC[C@@H]3C)c12 [H-1152]
- transdifferentiation and contraction of myofibroblasts induced by TGF-β (myofibroblasts): inhibit the transdifferentiation and contraction

SMILES: O=S(=O)(c1cccc2cnccc12)N1CCCNCC1 [HA-1077]
- transdifferentiation and contraction of myofibroblasts induced by TGF-β (myofibroblasts): inhibit the transdifferentiation and contraction

SMILES: O=c1[nH]ccc2c(S(=O)(=O)N3CCCNCC3)cccc12 [HF, Hydroxyfasudil]
- contraction induced by cytokines such as PDGF-BB and TGF-β2 (bovine lens cells): inhibited contraction

SMILES: O=S(=O)(c1cccc2c(I)cccc12)N1CCCNCC1 [ML-7]
- transdifferentiation and contraction of myofibroblasts induced by TGF-β (myofibroblasts): inhibit the transdifferentiation and contraction

SMILES: C[C@@H](N)[C@H]1CC[C@H](C(=O)Nc2ccncc2)CC1 [Y-27632, reference compound]
- contraction induced by cytokines such as PDGF-BB and TGF-β2 (bovine lens cells): inhibited contraction
- actin stress fibers (observation) ([1]; 1 mM): disappear
- reversibility of actin stress fibers ([2]; 1 mM): recovered
- state of Detection Zone about 48 hours after removal (HLEpiC [3]; 1 mM treatment, about 48 hours after removal): not filled with HLEpiC
- time after removal at which Detection Zone was filled with HLEpiC (HLEpiC [3]; 1 mM treatment): 116 h
- cell migration into Detection Zone (observation) (HLEpiC [5]; 1 mM): inhibitory action on cell migration was also recognized
- transdifferentiation and contraction of myofibroblasts induced by TGF-β (myofibroblasts): inhibit the transdifferentiation and contraction

SMILES: O=S(=O)(c1cccc2cnccc12)N1CCCNCC1 [fasudil]
- hyalocyte-containing collagen gel contraction [7]: inhibits
